Laboratory results from patent publication US9770436B2, “Polymorphs of azabicyclohexane” (EUTHYMICS BIOSCIENCE, INC., priority 2004, dated 2017).

What was measured:
[1] = (+) isomeric form; cited from earlier work
[2] = Informal storage stability of the Example 1 hydrochloride salt (50% by weight mixture of polymorph forms A and B) in desiccators; polymorph content by XRPD and Raman; assay type: physicochemical; settings: started as 50% (by weight) A / 50% B, XRPD
Method: The X-ray powder diffraction pattern (XRPD) analyses of polymorph forms A, B and C were performed with a Shimadzu XRD-6000 X-ray powder diffractometer using Cu Ka radiation. In this procedure the compound as a hydrochloride salt was loaded onto the machine as a crystalline powder. The instrument was equipped with a long fine focus X-ray tube. The tube voltage and amperage were set to 40 kV and 40 mA, respectively. The divergence and scattering slits were set at 1° and the receiving slit was set at 0.15 mm. Diffracted radiation was detected by a Nal scintillation detector. A theta-two theta continuous scan at 3°/min (0.4 sec/0.02° step) from 2.5 to 40° 2θ was used. A silicon standard was analyzed to check the instrument alignment. Data were collected and analyzed using XRD-6000 v. 4.1.
Briefly, Raman spectra were obtained using a FT-Raman 960 (or 860) spectrometer (Thermo Nicolet) interfaced to an 860 FT-IR. This spectrometer uses an excitation wavelength of 1064 nm. Approximately 0.912 W of Nd:YV04 laser power was used to irradiate the samples. The Raman spectra were measured with an indium gallium arsenide (InGaAs) detector. The samples were pressed into pellets for analysis. A total of 128 sample scans were collected from 3600 or 3700-98 cm^−1 at a spectral resolution of about (±) 4 cm^−1, using Happ-Genzel apodization. Wavelength calibration was performed using sulfur and cyclohexane. The Raman spectra peak positions given below in wavenumbers (cm^−1) for the purified polymorph forms A, B and C of the hydrochloride salt of (+)-1-(3,4-dichlorophenyl)-3-azabicyclo[3.1.0]hexane are subject to an error of about (±) 4 cm^−1.
Duplicate samples of the hydrochloride salt of (+)-1-(3,4dichlorophenyl)-3-azabicyclo[3.1.0] hexane produced in Example 1 and containing a 50% (by weight) mixture of polymorph form A and polymorph form B were placed on informal stability to test storage in desiccators placed at ambient temperature and at 50° C. in a programmable heating bloc.

[3] = Thermodynamic stability of the crystalline polymorph forms; assay type: physicochemical; settings: pure crystalline structure, acid addition salt
[4] = 50° C. programmable heating block, after 17 days of storage
[5] = desiccator, ambient temperature, after 1 week, confirmed by Raman

SMILES: Clc1ccc(C23CNCC2C3)cc1Cl (single isomer, unassigned; (+)) [compound of formula I, (+)-1-(3,4-dichlorophenyl)-3-azabicyclo[3.1.0]hexane]
- anti-depressive activity [1]: potent anti-depressive activity

SMILES: Cl.Clc1ccc(C23CNCC2C3)cc1Cl (stereo not drawn) [Example 1, hydrochloride salt of (+)-1-(3,4dichlorophenyl)-3-azabicyclo[3.1.0] hexane]
- content of polymorph form A after storage [2, 4]: about 50 % (by weight)
- content of polymorph form C after storage [2, 4]: 50 % (by weight)
- content of polymorph form A after storage [2, 5]: 40 % (by weight)
- content of polymorph form B after storage [2, 5]: 60 % (by weight)

SMILES: Cl.Clc1ccc(C23CNCC2C3)cc1Cl (stereo not drawn) [polymorph form A, hydrochloride salt of (+)-1-(3,4-dichlorophenyl)-3-azabicyclo[3.1.0]hexane]
- thermodynamic stability of the polymorph form [3]: thermodynamically stable
